Reference: US11427553B2, “Dihydrooxadiazinones” (Bayer Aktiengesellschaft, priority 2017, dated 2022)

Assays:
TE4 cells = test: Assay 2 cell proliferation measurement, TE4; assay type: cell-based; conditions: Homo sapiens, Oesophagus squamous cell carcinoma, read-out: Anti-proliferation IC50 [nM] TE4
Protocol: (§1) Cell Proliferation Measurement
(§2) The antiproliferative activity of the compounds of the general formula (I) was examined in vitro in human cancer cells. For this purpose, 500 cells, including HeLa cells, A2058 cells, DU145 cells, HMCB cells, IGR37 cells, NCIH1734 cells, OSRC2 cells, or 750 cells, including CAL51 cells, COL0741 cells, DBTRG05MG cells, DKMG cells, G292CLONEA141B1 cells, GB1 cells, HEL cells, HEL9217 cells, JHUEM1 cells, L3.3 cells, LI7 cells, TE4 cells, or 1000 cells, including 8505C cells, HUT78 cells, NCIH1563 cells, NCIH2122 cells, NCIH2172 cells, RVH421 cells, SKMEL3 cells, or 1500 cells, including C32 cells, HS578T cells, JHOM1 cells, NCIH196 cells, OVKATE cells, were plated in 384-well plates with appropriate growth medium and incubated at 37° C. overnight. […] After 72 h, the cells were treated with 20 μl/well of 50% CTG solution in PBS (Promega Cell Titer Glo (catalogue #G755B and G756B)) and incubated at room temperature for 10 min, and luminescence was measured by means of a VICTOR V (Perkin Elmer), in order to determine cell viability at the end of treatment. The percentage effect on cell growth and the IC50 derived therefrom were determined for each test substance using the values from untreated wells (=percent viability). The IC50 values were calculated using a 4-parameter fit.

DBTRG-05-MG cells = test: Assay 1 cell proliferation measurement, DBTRG-05-MG; assay type: cell-based; conditions: Homo sapiens, Glioblastoma, read-out: Anti-proliferation IC50 [nM] DBTRG-05-MG
NCIH2122 cells = test: Assay 2 cell proliferation measurement, NCIH2122; assay type: cell-based; conditions: Homo sapiens, NCI-H2122, Lung adenocarcinoma, read-out: Anti-proliferation IC50 [nM] NCIH2122
Protocol: as §1, §2

[1] = test system: xenograft models of human tumors; test: Assay 3 in vivo xenotransplantation models of human cancer (overall statement); conditions: monotherapy treatment, p.o., mice
Source text: (§3) In Vivo Xenotransplantation Models
(§4) The anti-tumor activities of Compounds of examples 135 and 146 were examined in murine xenotransplantation models of human cancer. For this purpose, mice were implanted subcutaneously with tumor cells. At a mean tumor size of 20-40 mm^2 animals were randomized into treatment and control groups (at least n=10 animals/group) and treatment started with vehicle only or respective Compound (formulation: 90% PEG400/10% Ethanol; application route: per os (“p.o.”), orally). The oral application volume was 10 ml/kg. In the case of twice daily treatments, the time interval between two applications per day was 6-7 h. The tumor size and the body weight were determined at least weekly. The tumor area was detected by means of an electronic caliper [length (mm)×width (mm)]. The experiment was ended when the study reached the pre-determined ethical endpoint based on German and European animal welfare regulations. In vivo anti-tumor efficacy is presented as T/C ratio at study end (Treatment/Control; mean tumor weight of treatment group/mean tumor weight of control group) in Table 8. A compound having a T/C below 0.5 is defined as active (i.e., effective). Statistical analysis was assessed using SigmaStat software. A one-way analysis of variance was performed and differences to the control were compared by a pair-wise comparison procedure (Dunn's method).

CAL51 cells = test: Assay 2 cell proliferation measurement, CAL51; assay type: cell-based; conditions: Homo sapiens, CAL-51, Breast NS, read-out: Anti-proliferation IC50 [nM] CAL51
Protocol: as §1, §2

[2] = test system: HeLa xenograft (Cervical cancer); test: Assay 3 in vivo xenotransplantation model, HeLa; conditions: mice, 5 mg/kg 2QD p.o., * P < 0.05 vs control
Source text: as §3, §4

[3] = test system: PA-1 xenograft (Ovarian teratocarcinoma); test: Assay 3 in vivo xenotransplantation model, PA-1; conditions: PA-1 ovarian teratocarcinoma xenograft, mice
Source text: as §3, §4

[4] = test system: HEL92.1.7 xenograft (AML); test: Assay 3 in vivo xenotransplantation model, HEL92.1.7; conditions: HEL92.1.7 AML xenograft, mice, 40 mg/kg 2QD p.o.; * P < 0.05 vs control
Source text: as §3, §4

[5] = test system: A2058 xenograft (Melanoma); test: Assay 3 in vivo xenotransplantation model, A2058; conditions: mice, 10 mg/kg 2QD p.o., * P < 0.05 vs control
Source text: as §3, §4

DU145 cells = test: Assay 2 cell proliferation measurement, DU145; assay type: cell-based; conditions: Homo sapiens, DU-145, Prostate NS, read-out: Anti-proliferation IC50 [nM] DU145
Protocol: as §1, §2

JHOM1 cells = test: Assay 2 cell proliferation measurement, JHOM1; assay type: cell-based; conditions: Homo sapiens, Ovary adenocarcinoma, read-out: Anti-proliferation IC50 [nM] JHOM1
Protocol: as §1, §2

H4 cells = test: Assay 1 cell proliferation measurement, H4; assay type: cell-based; conditions: Homo sapiens; Astrocytoma; read-out: Anti-proliferation IC50 [nM] H4
HMCB cells = test: Assay 1 cell proliferation measurement, HMCB; assay type: cell-based; conditions: Homo sapiens, Melanoma, read-out: Anti-proliferation IC50 [nM] HMCB
NCI-H1734 cells = test: Assay 1 cell proliferation measurement, NCI-H1734; assay type: cell-based; conditions: Homo sapiens, Lung, read-out: Anti-proliferation IC50 [nM] NCI-H1734
C32 cells = test: Assay 1 cell proliferation measurement, C32; assay type: cell-based; conditions: Homo sapiens, Melanoma, read-out: Anti-proliferation IC50 [nM] C32
COLO741 cells = test: Assay 1 cell proliferation measurement, COLO741; assay type: cell-based; conditions: Homo sapiens, COLO-741; Melanoma; read-out: Anti-proliferation IC50 [nM] COLO741

Work on `C[C@@H]1OC(=O)NN=C1c1ccc(-n2ccc(C(F)(F)F)n2)c(C(F)(F)F)c1` [Example 265, (6S)-6-Methyl-5-{3-(trifluoromethyl)-4-[3-(trifluoromethyl)-1H-pyrazol-1-yl]phenyl}-3,6-dihydro-2H-1,3,4-oxadiazin-2-one] yielded an IC50 (TE4 cells) of 41 nM.
`O=C1NN=C(c2ccc(-c3ccc(Cl)cc3)c(C(F)(F)F)c2)CO1` [Example 31, 5-[4′-Chloro-2-(trifluoromethyl)biphenyl-4-yl]-3,6-dihydro-2H-1,3,4-oxadiazin-2-one] showed an IC50 (DBTRG-05-MG cells) of 56 nM.
For `O=C1NN=C(c2ccc(-c3cnn(C(F)F)c3)c(C(F)(F)F)c2)CO1` [Example 146, 5-{4-[1-(Difluoromethyl)-1H-pyrazol-4-yl]-3-(trifluoromethyl)phenyl}-3,6-dihydro-2H-1,3,4-oxadiazin-2-one], the IC50 (NCIH2122 cells) was 3 nM, the “anti-tumor efficacy in xenograft models of human tumors” value [1] was “potent anti-tumor efficacy” and the IC50 (CAL51 cells) was 37 nM. For the same compound, the “T/C (mean final tumor weight treatment / control)” value [2] was 0.08*, the IC50 (DBTRG-05-MG cells) was 14 nM and the “T/C (mean final tumor weight treatment / control)” value ([3]; 20 mg/kg 2QD p.o., * P < 0.05 vs control) was 0.49*. The “T/C (mean final tumor weight treatment / control)” value [4] was 0.08*, the “T/C (mean final tumor weight treatment / control)” value [5] was 0.23* and the IC50 (DU145 cells) was 14 nM. The IC50 (JHOM1 cells) was 8 nM.
Work on `O=C1NN=C(c2ccc(-c3ccc(F)cc3)c(C(F)(F)F)c2)CO1` [Example 3, 5-[4′-Fluoro-2-(trifluoromethyl)biphenyl-4-yl]-3,6-dihydro-2H-1,3,4-oxadiazin-2-one] yielded an IC50 (H4 cells) of 25 nM, an IC50 (HMCB cells) of 26 nM and an IC50 (NCI-H1734 cells) of 13 nM.
For `C[C@@H]1OC(=O)NN=C1c1ccc(-c2ccc(F)cc2)c(C(F)(F)F)c1` [Example 135, (6S)-5-[4′-Fluoro-2-(trifluoromethyl)biphenyl-4-yl]-6-methyl-3,6-dihydro-2H-1,3,4-oxadiazin-2-one], the “anti-tumor efficacy in xenograft models of human tumors” value [1] was “potent anti-tumor efficacy”, the IC50 (C32 cells) was 15 nM and the IC50 (HMCB cells) was 13 nM. For the same compound, the “T/C (mean final tumor weight treatment / control)” value ([3]; 5 mg/kg 2QD p.o.) was 0.63, the IC50 (COLO741 cells) was 1 nM and the IC50 (TE4 cells) was 15 nM.
